Test results: BindingDB's records for PubMed 35124530 (Tsinghua University, 2022)

Assay: Antagonist activity at CXCR4 receptor in human SUP-T1 cells assessed as reduction in SDF-1alpha-stimulated cell migration and measured by CellTiter-96 assay

IC50: 236 nM
Structure (SMILES): N=C(N)NCCC[C@H](NCc1ccccn1)C(=O)NCc1ccc(CNCCCNC2CCCCC2)cc1
